This data set in a line: Apoptosis/necrosis assay (Annexin V–propidium iodide, flow cytometry). In kind it is cell-based, human. To be noted: human, MCF-10A cells, 24 h at IC50-24, flow cytometry. As for the experimental part:
Apoptosis and necrosis were determined using the Apoptosis/Necrosis Detection kit (Abcam, Cambridge, UK) according to the manufacturer’s instructions. In brief, approximately 500,000 cells were seeded in 6-well plates (Corning) for 24 h. […] Cells were harvested and collected by centrifugation. All the samples were analyzed in triplicate using flow cytometry equipment FACSCalibur instrument (BD Biosciences, San Jose, CA, USA) at […] and 575-nm emission. Data analysis was performed using the FlowJo software (Tree Star Inc., Ashland, OR, USA). All experiments were performed in triplicate.
A general note: A flow cytometer gives signals particle by particle.

Structures are written as SMILES.

Compound `O=C(CN1CCN(c2cccc(Cl)c2)CC1)N[C@@H]1CCOc2ccccc21` [P8, 2-[4-(3-chlorophenyl)piperazin-1-yl]-N-[(4R)-chroman-4-yl]acetamide] had a viability at 24 h of 94.3%.

As usually defined, the viability is a per cent measure of how many cells are alive, often set against a control. High values mean less harm to the cells, low ones more harm to the cells.

These data come from article PMC10989073, “Antineoplastic effect of compounds C14 and P8 on TNBC and radioresistant TNBC cells by stabilizing the K-Ras4B^G13D/PDE6δ complex” (Frontiers in Oncology, 2024).
